# PubChem BioAssay (NCI)
#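 Dose response: 5 concentrations. Exposure: 48 h. Format: 96-well plates. Endpoint: linear interpolation; highest concentration if not reached. GI50 = concentration required for 50% inhibition of growth. The concentration for full growth arrest is given as TGI.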
# Key:
# Test in all cases: NCI anticancer screen, dose series, 48 h
# SNB-75 CNS = system: SNB-75 CNS
# SK-MEL-28 melanoma = system: SK-MEL-28 melanoma
# CCRF-CEM leukemia = system: CCRF-CEM leukemia
# LOX IMVI melanoma = system: LOX IMVI melanoma
# SN12C renal = system: SN12C renal
# HL-60(TB) leukemia = system: HL-60(TB) leukemia
# UACC-62 melanoma = system: UACC-62 melanoma
# NCI-H522 lung = system: NCI-H522 lung
# K-562 leukemia = system: K-562 leukemia
# HCC-2998 colon = system: HCC-2998 colon
SMILES,GI50 (SNB-75 CNS),TGI (SNB-75 CNS),GI50 (SK-MEL-28 melanoma),TGI (SK-MEL-28 melanoma),GI50 (CCRF-CEM leukemia),TGI (CCRF-CEM leukemia),GI50 (LOX IMVI melanoma),TGI (LOX IMVI melanoma),GI50 (SN12C renal),TGI (SN12C renal),GI50 (HL-60(TB) leukemia),TGI (HL-60(TB) leukemia),TGI (UACC-62 melanoma),TGI (NCI-H522 lung),TGI (K-562 leukemia),TGI (HCC-2998 colon),GI50 (UACC-62 melanoma),GI50 (NCI-H522 lung),GI50 (K-562 leukemia),GI50 (HCC-2998 colon)
CCCCCCCCCCCCCCCC[N+]1(CC)CCCC1,0.247 µM,1.11 µM,1.18 µM,2.81 µM,0.379 µM,1.84 µM,0.162 µM,0.454 µM,1.1 µM,2.44 µM,0.339 µM,1.14 µM,–,–,–,–,–,–,–,–
O=C1c2ccccc2-c2cc3ccccc3c(=O)n21,–,> 100 µM,–,> 100 µM,–,> 100 µM,–,> 100 µM,–,> 100 µM,–,–,> 100 µM,> 100 µM,> 100 µM,> 100 µM,–,–,–,–
CC1OC(=O)N(CCCC=C2SCCCS2)C1=O (configuration not stated),–,> 100 µM,–,> 100 µM,–,> 100 µM,–,> 100 µM,–,> 100 µM,–,–,> 100 µM,> 100 µM,> 100 µM,–,–,–,–,–
c1ccc2c(c1)CCCc1cc3ccccc3nc1-2,–,> 100 µM,–,> 100 µM,–,> 100 µM,–,–,–,> 100 µM,–,–,> 100 µM,> 100 µM,> 100 µM,> 100 µM,–,–,–,–
COC(=O)C12CC(C3CC31)C1CC12 (configuration not stated),–,–,–,> 100 µM,–,> 100 µM,–,> 100 µM,–,> 100 µM,–,> 100 µM,> 100 µM,–,> 100 µM,> 100 µM,–,–,–,–
O=c1oc(-c2ccc(O)c(O)c2)cc2cc(O)cc(O)c12,–,–,39.5 µM,> 100 µM,3.39 µM,> 100 µM,60.8 µM,> 100 µM,43 µM,> 100 µM,–,–,> 100 µM,> 100 µM,> 100 µM,57.7 µM,33.8 µM,27.3 µM,41.6 µM,36.6 µM
CN1CCCC1c1cccnc1.O=C(O)c1ccccc1O.O=C([O-])c1ccccc1[OH2+].O=C([O-])c1ccccc1[OH2+].O=C([O-])c1ccccc1[OH2+].[Mn+2] (configuration not stated),> 100 µM,> 100 µM,> 100 µM,> 100 µM,23.3 µM,> 100 µM,> 100 µM,> 100 µM,> 100 µM,> 100 µM,> 100 µM,> 100 µM,> 100 µM,27.7 µM,> 100 µM,–,> 100 µM,12.1 µM,> 100 µM,–
C[C@@H](NC(=O)Cc1cc(F)cc(F)c1)C(=O)N[C@@]1(C)N=C(c2ccccc2)c2ccccc2N(C)C1=O,> 95.3 µM,> 100 µM,> 100 µM,> 100 µM,24.6 µM,> 100 µM,45.7 µM,> 100 µM,32 µM,97.5 µM,10.6 µM,> 55.4 µM,> 89 µM,> 100 µM,> 94.1 µM,–,32.4 µM,69.2 µM,32.6 µM,–
COC(=O)/C(C#N)=C1\N=NNN1CCCN1CCOCC1,–,> 100 µM,–,> 100 µM,–,> 100 µM,–,> 100 µM,–,> 100 µM,–,–,> 100 µM,> 100 µM,> 100 µM,> 100 µM,–,–,–,–
O=C(Oc1c(I)ccccc1=O)c1ccc([N+](=O)[O-])cc1,–,–,–,21.7 µM,–,> 100 µM,–,83.2 µM,–,67.9 µM,–,46.5 µM,51 µM,36.7 µM,61.9 µM,49.5 µM,–,–,–,–
CC1(CC(=O)O)OC2CCCCCC2O1 (configuration not stated) (tested in a mixture with another compound),–,> 100 µM,–,> 100 µM,–,84.5 µM,–,> 100 µM,–,> 100 µM,–,> 100 µM,> 100 µM,> 100 µM,> 100 µM,–,–,–,–,–
Brc1ccc2c(c1)C1(c3cc(Br)ccc3-2)c2cc(Br)ccc2-c2ccc(Br)cc21,–,–,–,> 100 µM,–,> 100 µM,–,> 100 µM,–,> 100 µM,–,> 100 µM,> 100 µM,> 100 µM,> 100 µM,> 100 µM,–,–,–,–
NC(Cc1nn[nH]n1)C(=O)O (configuration not stated),–,> 100 µM,–,> 100 µM,–,> 100 µM,–,> 100 µM,–,> 100 µM,–,–,> 100 µM,> 100 µM,> 100 µM,–,–,–,–,–
Cc1nnc([S-])s1.[Au+].c1ccc([PH+](c2ccccc2)c2ccccc2)cc1,1.53 µM,2.87 µM,1.57 µM,2.99 µM,2.04 µM,6.91 µM,1.44 µM,2.82 µM,–,–,1.85 µM,5.51 µM,2.56 µM,3.17 µM,–,3.36 µM,1.28 µM,0.692 µM,–,1.83 µM
O=C1CCC2(CCC(=O)NC2=O)C(=O)N1,–,–,–,> 100 µM,–,> 100 µM,–,> 100 µM,–,> 100 µM,–,> 100 µM,–,> 100 µM,> 100 µM,> 100 µM,–,–,–,–
COc1ccc(C2=CC(c3cc(OC)c(OC)c(OC)c3)n3ncnc3N2)cc1 (configuration not stated),–,–,10.9 µM,> 100 µM,0.0425 µM,> 100 µM,0.0898 µM,> 100 µM,0.141 µM,> 100 µM,0.0252 µM,0.0612 µM,> 100 µM,0.654 µM,> 100 µM,> 100 µM,0.0689 µM,0.0324 µM,0.0359 µM,0.24 µM
CO[C@H]1C=C[C@]23c4cc5c(cc4CN(CC2O)[C@@H]3C1)OCO5 (some centres not stated),–,30.4 µM,–,54.9 µM,–,–,–,21.3 µM,–,29.4 µM,–,0.32 µM,19.6 µM,16 µM,> 100 µM,16.7 µM,–,–,–,–
COC(=O)C(CC=O)C(=O)C(=O)Nc1cccc(C(F)(F)F)c1 (configuration not stated),–,–,–,> 100 µM,–,> 100 µM,–,> 100 µM,–,> 100 µM,–,> 100 µM,> 100 µM,> 100 µM,> 100 µM,> 100 µM,–,–,–,–
COC(=O)c1cc(Nc2ccc(O)c3c2C(=O)c2c([N+](=O)[O-])ccc(O)c2C3=O)cc(C(=O)OC)c1,–,–,–,–,4.27 µM,> 100 µM,6.39 µM,> 100 µM,21.4 µM,> 100 µM,18.4 µM,88.2 µM,> 100 µM,28.3 µM,> 100 µM,> 100 µM,4.63 µM,4.07 µM,27.2 µM,4.39 µM
